Experimental data from patent US20140294905A1, “ANTIMICROBIAL TEXTILES” (BACTOGEN BIYOTEKNOLOJIK URUNLER SANAYI VE TICARET ANONIM …, priority 2011, published 2014).

Tests used:
[1] = test system: Aspergillus niger; assay: Antimicrobial tests of textiles on planted petri dishes; assay type: cell-based; parameters: key: + indicates that (antimicrobial) inhibition zones are observed around the textiles added with sodium borate (FIG. 1-8); settings: in vitro, room temperature for 72 hours
Experimental: (§1) Sodium borate-added textiles prepared with three different techniques and the unprocessed textiles to which sodium borate is not added are placed on the petri dishes planted with microorganisms and their antimicrobial efficiency is tested.
(§2) Sodium borate-added textiles fixed with methanol, textiles sprayed with sodium borate dissolved in pH-enhanced water and textiles dyed with water-based textile dye the base of which is prepared by the addition of sodium borate are tested. As a negative control, any possible impact which inhibits the growing of microorganisms on textiles which are not processed is observed. […] Tested antimicrobial activity is evaluated upon the measuring of the inhibition zone of the microorganisms handled. All tests are repeated at least twice.

[2] = test system: Penicillium expansum; assay: as above; assay type: cell-based; parameters: key: + indicates that (antimicrobial) inhibition zones are observed around the textiles added with sodium borate (FIG. 1-8); settings: in vitro, room temperature for 72 hours
Experimental: as §1, §2

[3] = test system: Fusarium oxysporum; assay: as above; assay type: cell-based; parameters: key: + indicates that (antimicrobial) inhibition zones are observed around the textiles added with sodium borate (FIG. 1-8); settings: in vitro, room temperature for 72 hours
Experimental: as §1, §2

[4] = test system: Candida albicans; assay: as above; assay type: cell-based; parameters: key: + indicates that (antimicrobial) inhibition zones are observed around the textiles added with sodium borate (FIG. 1-8); settings: in vitro, 37° C. for 48 hours
Experimental: as §1, §2

[5] = test system: Penicillium vinaceum; assay: as above; assay type: cell-based; parameters: key: + indicates that (antimicrobial) inhibition zones are observed around the textiles added with sodium borate (FIG. 1-8); settings: in vitro, room temperature for 72 hours
Experimental: as §1, §2

[6] = test system: Botrytis cinerea; assay: as above; assay type: cell-based; parameters: key: + indicates that (antimicrobial) inhibition zones are observed around the textiles added with sodium borate (FIG. 1-8); settings: in vitro, room temperature for 72 hours
Experimental: as §1, §2

[7] = test system: Candida glabrata; assay: as above; assay type: cell-based; parameters: key: + indicates that (antimicrobial) inhibition zones are observed around the textiles added with sodium borate (FIG. 1-8); settings: in vitro, 37° C. for 48 hours
Experimental: as §1, §2

[8] = test system: Penicillium expansum; assay: Modified disc diffusion method; settings: 25±1° C. for 72 hours
Experimental: (§3) A 100 μl solution containing 10^8 cfu/ml bacteria, 10^6 cfu/ml yeast and 10^4 spores/ml mould is prepared from new cultures and is inoculated respectively onto triptonic soy agar (TSA), Sabouraud Dextrose Agar (SDA) and Potato Dextrose Agar (PDA) through the use of diffusion method. 20 μl of sterile water is dropped onto empty discs and the discs are then dipped into sodium borate in powder format. Discs dipped into sodium borate are then placed on planted petri dishes. As a negative control, blank discs onto which 20 μl of sterile water is dropped are used. As a positive control, Ofloxacin (10 μg/disc) and nystatin (30 μg/disc) are respectively used for bacteria and fungi.
(§4) Planted petri dishes on which modified disc diffusion method is applied are kept at 36±1° C. for 24 hours for bacteria, at 36±1° C. for 48 hours for yeasts and at 25±1° C. for 72 hours for moulds. Antimicrobial activity inhibition zone (a zone where no microorganisms grow) is measured and evaluated for microorganisms tested with modified disc diffusion method. All tests are repeated at least twice.

[9] = test system: Candida glabrata; assay: Modified disc diffusion method; settings: 36±1° C. for 48 hours
Experimental: as §3, §4

[10] = test system: Fusarium oxysporum; assay: Modified disc diffusion method; settings: 25±1° C. for 72 hours
Experimental: as §3, §4

[11] = test system: Aspergillus niger; assay: Modified disc diffusion method; settings: 25±1° C. for 72 hours
Experimental: as §3, §4

[12] = test system: Botrytis cinerea; assay: Modified disc diffusion method; settings: 25±1° C. for 72 hours
Experimental: as §3, §4

[13] = test system: Candida albicans; assay: Modified disc diffusion method; settings: 36±1° C. for 48 hours
Experimental: as §3, §4

[14] = test system: Penicillium vinaceum; assay: Modified disc diffusion method; settings: 25±1° C. for 72 hours
Experimental: as §3, §4

[15] = test system: Pseudomonas aeruginosa; assay: Antimicrobial tests of textiles on planted petri dishes; assay type: cell-based; parameters: key: + indicates that (antimicrobial) inhibition zones are observed around the textiles added with sodium borate (FIG. 1-8); settings: in vitro, 37° C. for 24 hours
Experimental: as §1, §2

[16] = test system: MRSA; assay: as above; assay type: cell-based; parameters: key: + indicates that (antimicrobial) inhibition zones are observed around the textiles added with sodium borate (FIG. 1-8); settings: in vitro, 37° C. for 24 hours
Experimental: as §1, §2

[17] = test system: Escherichia coli; assay: as above; assay type: cell-based; parameters: key: + indicates that (antimicrobial) inhibition zones are observed around the textiles added with sodium borate (FIG. 1-8); settings: in vitro, 37° C. for 24 hours
Experimental: as §1, §2

[18] = test system: Staphylococcus aureus; assay: as above; assay type: cell-based; parameters: key: + indicates that (antimicrobial) inhibition zones are observed around the textiles added with sodium borate (FIG. 1-8); settings: in vitro, 37° C. for 24 hours
Experimental: as §1, §2

[19] = test system: Pseudomonas aeruginosa; assay: Modified disc diffusion method; settings: 36±1° C. for 24 hours
Experimental: as §3, §4

[20] = test system: Staphylococcus aureus; assay: Modified disc diffusion method; settings: 36±1° C. for 24 hours
Experimental: as §3, §4

[21] = test system: Escherichia coli; assay: Modified disc diffusion method; settings: 36±1° C. for 24 hours
Experimental: as §3, §4

C[C@@H]1[C@H](O)[C@@H](C)/C=C/C=C/CC/C=C/C=C/C=C/C=C/C(O[C@H]2O[C@H](C)[C@@H](O)[C@H](N)[C@@H]2O)CC2O[C@](O)(CC(O)C(O)CCC(O)CC(O)CC(O)CC(=O)O[C@H]1C)CC(O)C2C(=O)O (stereo partly shown) [Nystatin]
+: Antimicrobial test result (inhibition zone around textile) [1] | Antimicrobial test result (inhibition zone around textile) [2] | Antimicrobial test result (inhibition zone around textile) [3] | Antimicrobial test result (inhibition zone around textile) [4] | Antimicrobial test result (inhibition zone around textile) [5] | Antimicrobial test result (inhibition zone around textile) [6] | Antimicrobial test result (inhibition zone around textile) [7] | Antimicrobial effect (inhibition zone) [8] | Antimicrobial effect (inhibition zone) [9] | Antimicrobial effect (inhibition zone) [10] | Antimicrobial effect (inhibition zone) [11] | Antimicrobial effect (inhibition zone) [12] | Antimicrobial effect (inhibition zone) [13] | Antimicrobial effect (inhibition zone) [14]

CC1COc2c(N3CCN(C)CC3)c(F)cc3c(=O)c(C(=O)O)cn1c23 (stereo not shown) [Ofloxacin]
+: Antimicrobial test result (inhibition zone around textile) [15] | Antimicrobial test result (inhibition zone around textile) [16] | Antimicrobial test result (inhibition zone around textile) [17] | Antimicrobial test result (inhibition zone around textile) [18] | Antimicrobial effect (inhibition zone) [19] | Antimicrobial effect (inhibition zone) [20] | Antimicrobial effect (inhibition zone) [21]

O.O.O.O.O.O.O.O.O.O.[Na+].[Na+].[O-]B1OB2OB([O-])OB(O1)O2 [Sodium Borate, sodium borate]
+: Antimicrobial effect (inhibition zone) [19] | Antimicrobial effect (inhibition zone) [20] | Antimicrobial effect (inhibition zone) [8] | Antimicrobial effect (inhibition zone) [9] | Antimicrobial effect (inhibition zone) [21] | Antimicrobial effect (inhibition zone) [10] | Antimicrobial effect (inhibition zone) [11] | Antimicrobial effect (inhibition zone) [12] | Antimicrobial effect (inhibition zone) [13] | Antimicrobial effect (inhibition zone) [14]
